Experimental data as given in ChEMBL document CHEMBL4507276 (2021).

Key:
[1] = target: Glutamate receptor ionotropic, kainate 1 (Rattus norvegicus) (UniProt P22756); assay: KAINATE/R Eurofins-Panlabs selectivity data (BI); details: Compound concentration 10.0 uM
[2] = target: T1, Serine/threonine-protein kinase TAO2 (Homo sapiens) (UniProt Q9UL54); assay: TAOK2 Invitrogen selectivity data (BI); details: Compound concentration 3.0 uM
T1 sequence (whole entry): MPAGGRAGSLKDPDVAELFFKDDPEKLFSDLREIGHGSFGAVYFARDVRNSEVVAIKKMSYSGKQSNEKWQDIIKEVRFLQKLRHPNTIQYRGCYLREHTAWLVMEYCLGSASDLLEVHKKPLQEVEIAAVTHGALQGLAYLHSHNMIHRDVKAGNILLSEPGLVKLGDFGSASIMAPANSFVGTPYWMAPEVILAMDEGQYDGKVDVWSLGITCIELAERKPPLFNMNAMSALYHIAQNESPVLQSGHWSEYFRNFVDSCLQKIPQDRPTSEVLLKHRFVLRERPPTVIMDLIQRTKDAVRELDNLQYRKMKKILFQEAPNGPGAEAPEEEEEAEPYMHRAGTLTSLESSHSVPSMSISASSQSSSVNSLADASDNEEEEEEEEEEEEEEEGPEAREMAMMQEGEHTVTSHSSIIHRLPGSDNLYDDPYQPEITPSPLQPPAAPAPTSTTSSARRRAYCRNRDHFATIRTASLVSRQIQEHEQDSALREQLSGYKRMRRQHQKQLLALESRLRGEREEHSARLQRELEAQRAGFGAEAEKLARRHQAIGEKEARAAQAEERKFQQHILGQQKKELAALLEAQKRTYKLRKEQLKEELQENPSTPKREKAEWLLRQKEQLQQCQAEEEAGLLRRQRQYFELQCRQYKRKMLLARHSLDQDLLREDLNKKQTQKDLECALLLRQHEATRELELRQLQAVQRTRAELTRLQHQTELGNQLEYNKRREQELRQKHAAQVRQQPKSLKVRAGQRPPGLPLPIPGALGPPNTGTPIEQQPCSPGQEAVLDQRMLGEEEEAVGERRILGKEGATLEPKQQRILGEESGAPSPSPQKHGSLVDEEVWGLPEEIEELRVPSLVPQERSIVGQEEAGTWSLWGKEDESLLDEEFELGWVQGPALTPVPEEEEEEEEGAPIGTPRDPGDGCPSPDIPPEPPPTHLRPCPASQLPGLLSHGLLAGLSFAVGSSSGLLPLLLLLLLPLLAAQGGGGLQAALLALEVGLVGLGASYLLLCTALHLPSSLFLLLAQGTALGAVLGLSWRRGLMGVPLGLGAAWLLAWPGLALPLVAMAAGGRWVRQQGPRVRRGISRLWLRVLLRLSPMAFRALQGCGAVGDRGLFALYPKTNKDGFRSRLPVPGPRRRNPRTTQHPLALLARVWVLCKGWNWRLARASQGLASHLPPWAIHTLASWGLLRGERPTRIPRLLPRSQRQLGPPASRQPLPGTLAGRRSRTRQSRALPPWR

[3] = target: T2, cGMP-dependent protein kinase 2 (Homo sapiens) (UniProt Q13237); assay: PRKG2 Invitrogen selectivity data (BI); details: Compound concentration 3.0 uM
T2 sequence (whole entry): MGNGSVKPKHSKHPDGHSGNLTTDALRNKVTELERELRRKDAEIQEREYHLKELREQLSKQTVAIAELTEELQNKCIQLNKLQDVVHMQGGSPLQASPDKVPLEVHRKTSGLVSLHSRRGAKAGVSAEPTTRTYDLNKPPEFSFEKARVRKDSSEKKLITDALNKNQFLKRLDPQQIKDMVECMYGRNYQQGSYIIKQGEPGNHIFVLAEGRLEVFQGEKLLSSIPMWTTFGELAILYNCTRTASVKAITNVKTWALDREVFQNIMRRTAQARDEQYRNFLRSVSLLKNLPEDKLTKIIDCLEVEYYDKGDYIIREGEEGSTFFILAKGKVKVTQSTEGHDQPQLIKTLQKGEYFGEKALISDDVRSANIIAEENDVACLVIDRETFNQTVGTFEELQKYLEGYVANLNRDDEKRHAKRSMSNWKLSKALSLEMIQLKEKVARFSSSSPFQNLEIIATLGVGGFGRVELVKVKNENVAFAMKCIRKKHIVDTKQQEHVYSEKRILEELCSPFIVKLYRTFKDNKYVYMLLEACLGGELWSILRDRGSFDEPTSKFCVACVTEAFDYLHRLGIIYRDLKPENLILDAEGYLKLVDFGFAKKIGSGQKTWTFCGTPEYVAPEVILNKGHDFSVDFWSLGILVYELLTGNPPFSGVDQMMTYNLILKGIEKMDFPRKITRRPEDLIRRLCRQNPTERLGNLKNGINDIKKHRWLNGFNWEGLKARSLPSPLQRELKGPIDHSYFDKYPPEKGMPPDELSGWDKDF

[4] = target: Protein kinase C beta type (Homo sapiens) (UniProt P05771); assay: PRKCB1 Invitrogen selectivity data (BI); details: Compound concentration 3.0 uM
Protein kinase C beta type (Homo sapiens), sequence (P05771 2-671 limits assumed): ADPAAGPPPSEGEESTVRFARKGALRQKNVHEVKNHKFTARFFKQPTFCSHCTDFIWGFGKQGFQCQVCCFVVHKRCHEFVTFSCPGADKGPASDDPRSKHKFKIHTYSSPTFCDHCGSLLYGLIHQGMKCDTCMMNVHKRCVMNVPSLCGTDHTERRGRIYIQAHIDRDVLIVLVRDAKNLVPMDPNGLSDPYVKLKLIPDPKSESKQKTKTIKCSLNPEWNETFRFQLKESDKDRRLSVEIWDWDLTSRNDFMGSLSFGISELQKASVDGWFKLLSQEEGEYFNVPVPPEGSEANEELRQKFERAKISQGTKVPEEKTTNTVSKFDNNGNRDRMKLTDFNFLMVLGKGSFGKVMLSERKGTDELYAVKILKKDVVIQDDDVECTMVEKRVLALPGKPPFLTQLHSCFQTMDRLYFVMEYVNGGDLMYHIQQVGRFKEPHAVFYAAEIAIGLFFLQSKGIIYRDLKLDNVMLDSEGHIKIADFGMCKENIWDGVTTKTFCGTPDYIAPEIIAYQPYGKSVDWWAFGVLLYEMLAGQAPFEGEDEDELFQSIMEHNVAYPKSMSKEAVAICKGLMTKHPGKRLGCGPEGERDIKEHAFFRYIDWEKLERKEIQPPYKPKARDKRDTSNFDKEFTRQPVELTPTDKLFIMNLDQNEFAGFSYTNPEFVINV

Measured: residual activity

Glutamate receptor ionotropic, kainate 1 (Rattus norvegicus), sequence (P22756 whole entry): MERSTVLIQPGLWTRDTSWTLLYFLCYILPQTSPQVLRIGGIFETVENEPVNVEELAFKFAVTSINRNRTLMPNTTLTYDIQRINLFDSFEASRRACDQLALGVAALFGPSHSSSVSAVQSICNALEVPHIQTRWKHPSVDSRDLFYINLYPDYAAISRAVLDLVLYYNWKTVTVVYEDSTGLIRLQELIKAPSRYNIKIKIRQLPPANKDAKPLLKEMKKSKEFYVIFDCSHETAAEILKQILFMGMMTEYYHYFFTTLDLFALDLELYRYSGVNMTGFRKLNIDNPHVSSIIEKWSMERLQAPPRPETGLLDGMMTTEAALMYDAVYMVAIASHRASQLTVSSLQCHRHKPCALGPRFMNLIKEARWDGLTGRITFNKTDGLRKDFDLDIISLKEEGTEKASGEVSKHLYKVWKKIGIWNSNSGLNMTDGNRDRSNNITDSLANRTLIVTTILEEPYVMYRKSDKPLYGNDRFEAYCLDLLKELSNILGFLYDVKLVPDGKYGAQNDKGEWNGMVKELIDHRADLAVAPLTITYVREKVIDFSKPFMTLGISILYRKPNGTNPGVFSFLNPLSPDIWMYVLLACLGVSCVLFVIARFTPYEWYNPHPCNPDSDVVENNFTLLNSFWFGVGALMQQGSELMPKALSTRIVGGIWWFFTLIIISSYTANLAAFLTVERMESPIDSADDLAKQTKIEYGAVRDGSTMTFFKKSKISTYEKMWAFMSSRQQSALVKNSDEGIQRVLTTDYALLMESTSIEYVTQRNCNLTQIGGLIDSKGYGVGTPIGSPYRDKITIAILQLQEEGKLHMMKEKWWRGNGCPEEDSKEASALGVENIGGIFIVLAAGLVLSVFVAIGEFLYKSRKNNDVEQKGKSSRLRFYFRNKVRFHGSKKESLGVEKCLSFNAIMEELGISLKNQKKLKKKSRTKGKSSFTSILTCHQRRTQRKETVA

CN(C)C(=O)Cn1cc(-c2nc([C@@](C)(c3ccc(-c4cnc(N)nc4)cc3)C3CC3)no2)cn1 [BI 665915]
inactive: [1] 90% | [2] 100% | [3] 92.5% | [4] 98.5%
